Data published in patent US6645918B1, “N-([1,2,4]triazoloazinyl)thiophenesulfonamide compounds and their use as herbicides” (Dow AgroSciences LLC, priority 2000, dated 2003).

Assays:
Assay type in all cases: in vivo
[1] = test system: chickweed (Stellaria media); test: Postemergence herbicidal activity, chickweed; settings: foliar spray, visual after 2 weeks, 0 no injury, 100 complete kill
Method: (§1) Seeds of the desired test plant species were planted in Grace-Sierra MetroMix® 306 planting mixture, which typically has a pH of 6.0 to 6.8 and an organic matter content of about 30 percent, in plastic pots with a surface area of 64 square centimeters. When required to ensure good germination and healthy plants, a fungicide treatment and/or other chemical or physical treatment was applied. The plants were grown for 7-21 days in a greenhouse with an approximately 15 hr photoperiod which was maintained at about 23-29° C. during the day and 22-28° C. during the night. Nutrients and water were added on a regular basis and supplemental lighting was provided with overhead metal halide 1000 Watt lamps as necessary. The plants were employed for testing when they reached the first or second true leaf stage. A weighed amount of each test compound, determined by the highest rate to be tested, was placed in a 20 mL glass vial and was dissolved in 4 mL of a 97:3 v/v (volume/volume) mixture of acetone and dimethyl sulfoxide to obtain concentrated stock solutions. […] The concentrated stock solutions obtained were diluted with an aqueous mixture containing acetone, water, iso-propyl alcohol, dimethyl sulfoxide, Atplus 411F crop oil concentrate, and Triton X-155 surfactant (methylenebisdiamyl phenoxy polyethoxy ethanol) in a 48.5:39:10:1.5:1.0:0.02 v/v ratio to obtain spray solutions of known concentration. The solutions containing the highest concentration to be tested were prepared by diluting 2 mL aliquots of the stock solution with 13 mL of the mixture and lower concentrations were prepared by dilution of appropriate smaller portions of the stock solution. Approximately 1.5 mL aliquots of each solution of known concentration were sprayed evenly onto each of the test plant pots using a DeVilbiss atomizer driven by compressed air pressure of 2 to 4 psi (140 to 280 kilopascals) to obtain thorough coverage of each plant. Control plants were sprayed in the same manner with the aqueous mixture. In this test an application rate of 1 ppm results in the application of approximately 1 g/ha. The treated plants and control plants were placed in a greenhouse as described above and watered by sub-irrigation to prevent wash-off of the test compounds. After 2 weeks the condition of the test plants as compared with that of the untreated plants was determined visually and scored on a scale of 0 to 100 percent where 0 corresponds to no injury and 100 corresponds to complete kill.

[2] = test system: cocklebur (Xanthium strumarium); test: Postemergence herbicidal activity, cocklebur; settings: foliar spray, visual after 2 weeks, 0 no injury, 100 complete kill
Method: as §1

[3] = test system: lambsquarters (Chenopodium album); test: Postemergence herbicidal activity, lambsquarters; settings: foliar spray, visual after 2 weeks, 0 no injury, 100 complete kill
Method: as §1

[4] = test system: morningglory (Ipomoea hederacea); test: Postemergence herbicidal activity, morningglory; settings: foliar spray, visual after 2 weeks, 0 no injury, 100 complete kill
Method: as §1

[5] = test system: pigweed (Amaranthus retroflexus); test: Postemergence herbicidal activity, pigweed; settings: foliar spray, visual after 2 weeks, 0 no injury, 100 complete kill
Method: as §1

[6] = test system: velvetleaf (Abutilion theophrasti); test: Postemergence herbicidal activity, velvetleaf; settings: foliar spray, visual after 2 weeks, 0 no injury, 100 complete kill
Method: as §1

[7] = test system: viola (Viola tricolor); test: Postemergence herbicidal activity, viola; settings: foliar spray, visual after 2 weeks, 0 no injury, 100 complete kill
Method: as §1

[8] = test system: wild buckwheat (Polygonum convolvulus); test: Postemergence herbicidal activity, wild buckwheat; settings: foliar spray, visual after 2 weeks, 0 no injury, 100 complete kill
Method: as §1

[9] = test system: blackgrass (Alopecurus myosuroides); test: Postemergence herbicidal activity, blackgrass; settings: foliar spray, visual after 2 weeks, 0 no injury, 100 complete kill
Method: as §1

[10] = test system: giant foxtail (Setaria faberi); test: Postemergence herbicidal activity, giant foxtail; settings: foliar spray, visual after 2 weeks, 0 no injury, 100 complete kill
Method: as §1

[11] = test system: Rox orange sorghum (Sorghum bicolor); test: Postemergence herbicidal activity, Rox orange sorghum; settings: foliar spray, visual after 2 weeks, 0 no injury, 100 complete kill
Method: as §1

[12] = test system: wild oats (Avena fatua); test: Postemergence herbicidal activity, wild oats; settings: foliar spray, visual after 2 weeks, 0 no injury, 100 complete kill
Method: as §1

[13] = test system: cocklebur (Xanthium strumarium); test: Preemergence herbicidal activity, cocklebur; settings: 35 g/Ha, soil spray, visual after 3 weeks; 0 no injury, 100 complete kill or no germination
Method: (§2) The soil matrix was contained in plastic pots with a surface area of 161 square centimeters. When required to ensure good germination and healthy plants, a fungicide treatment and/or other chemical or physical treatment was applied. A weighed amount, determined by the highest rate to be tested, of each test compound was placed in a 20 mL glass vial and was dissolved in 8 mL of a 97:3 v/v (volume/volume) mixture of acetone and dimethyl sulfoxide to obtain concentrated stock solutions. […] The stock solutions obtained were diluted with a 99.9:0.1 mixture of water and Tween® 155 surfactant (ethoxylated sorbitan fatty acid ester) to obtain application solutions of known concentration. The solutions containing the highest concentration to be tested were prepared by diluting 4 mL aliquots of the stock solution with 8.5 mL of the mixture and lower concentrations were prepared by dilution of appropriate smaller portions of the stock solution. A 2.5 mL aliquot of each solution of known concentration was sprayed evenly onto the soil of each seeded pot using a Cornwall 5.0 mL glass syringe fitted with a TeeJet TN-3 hollow cone nozzle to obtain thorough coverage of the soil in each pot. Control pots were sprayed in the same manner with the aqueous mixture. A highest application rate of 4.48 kg/ha is achieved when 50 mg of test compound is employed. The treated pots and control pots were placed in a greenhouse with an approximately 15 hr photoperiod which was maintained at about 23-29° C. during the day and 22-28° C. during the night. Nutrients and water were added on a regular basis and supplemental lighting was provided with overhead metal halide 1000 Watt lamps as necessary. The water was added by top-irrigation. After 3 weeks the condition of the test plants that germinated and grew as compared with that of the untreated plants that germinated and grew was determined visually and scored on a scale of 0 to 100 percent where 0 corresponds to no injury and 100 corresponds to complete kill or no germination.

[14] = test system: lambsquarters (Chenopodium album); test: Preemergence herbicidal activity, lambsquarters; settings: 35 g/Ha, soil spray, visual after 3 weeks; 0 no injury, 100 complete kill or no germination
Method: as §2

[15] = test system: morningglory (Ipomoea hederacea); test: Preemergence herbicidal activity, morningglory; settings: 35 g/Ha, soil spray, visual after 3 weeks; 0 no injury, 100 complete kill or no germination
Method: as §2

[16] = test system: pigweed (Amaranthus retroflexus); test: Preemergence herbicidal activity, pigweed; settings: 35 g/Ha, soil spray, visual after 3 weeks; 0 no injury, 100 complete kill or no germination
Method: as §2

[17] = test system: velvetleaf (Abutilion theophrasti); test: Preemergence herbicidal activity, velvetleaf; settings: 35 g/Ha, soil spray, visual after 3 weeks; 0 no injury, 100 complete kill or no germination
Method: as §2

[18] = test system: wild poinsettia (Euphorbia heterophylla); test: Preemergence herbicidal activity, wild poinsettia; settings: 35 g/Ha, soil spray, visual after 3 weeks; 0 no injury, 100 complete kill or no germination
Method: as §2

[19] = test system: blackgrass (Alopecurus myosuroides); test: Preemergence herbicidal activity, blackgrass; settings: 35 g/Ha, soil spray, visual after 3 weeks; 0 no injury, 100 complete kill or no germination
Method: as §2

[20] = test system: barnyardgrass (Echinochloa crus-galli); test: Preemergence herbicidal activity, barnyardgrass; settings: 35 g/Ha, soil spray, visual after 3 weeks; 0 no injury, 100 complete kill or no germination
Method: as §2

[21] = test system: crabgrass (Digitaria sanguinalis); test: Preemergence herbicidal activity, crabgrass; settings: 35 g/Ha, soil spray, visual after 3 weeks; 0 no injury, 100 complete kill or no germination
Method: as §2

[22] = test system: giant foxtail (Setaria faberi); test: Preemergence herbicidal activity, giant foxtail; settings: 35 g/Ha, soil spray, visual after 3 weeks; 0 no injury, 100 complete kill or no germination
Method: as §2

[23] = test system: Rox orange sorghum (Sorghum bicolor); test: Preemergence herbicidal activity, Rox orange sorghum; settings: 35 g/Ha, soil spray, visual after 3 weeks; 0 no injury, 100 complete kill or no germination
Method: as §2

[24] = test system: wild oats (Avena fatua); test: Preemergence herbicidal activity, wild oats; settings: 35 g/Ha, soil spray, visual after 3 weeks; 0 no injury, 100 complete kill or no germination
Method: as §2

SMILES | XANST preemergence injury score 0-100 [13] [%] | CHEAL preemergence injury score 0-100 [14] [%] | IPOHE preemergence injury score 0-100 [15] [%] | AMARE preemergence injury score 0-100 [16] [%] | ABUTH preemergence injury score 0-100 [17] [%] | EPHHL preemergence injury score 0-100 [18] [%] | ALOMY preemergence injury score 0-100 [19] [%] | ECHCG preemergence injury score 0-100 [20] [%] | DIGSA preemergence injury score 0-100 [21] [%] | SETFA preemergence injury score 0-100 [22] [%] | SORBI preemergence injury score 0-100 [23] [%] | AVEFA preemergence injury score 0-100 [24] [%] | also measured
COc1cc(Cl)sc1S(=O)(=O)Nc1nc2c(OC)cnc(OC)n2n1 [Compound 3] | 70 | 95 | 60 | 95 | 50 | 70 | 80 | 70 | 95 | 90 | 90 | 70 | STEME postemergence injury score 0-100 ([1]; 31 ppm): 70%; XANST postemergence injury score 0-100 ([2]; 31 ppm): 100%; CHEAL postemergence injury score 0-100 ([3]; 31 ppm): 95%; IPOHE postemergence injury score 0-100 ([4]; 31 ppm): 70%; AMARE postemergence injury score 0-100 ([5]; 31 ppm): 100%; ABUTH postemergence injury score 0-100 ([6]; 31 ppm): 70%; VIOTR postemergence injury score 0-100 ([7]; 31 ppm): 80%; POLCO postemergence injury score 0-100 ([8]; 31 ppm): 85%; ALOMY postemergence injury score 0-100 ([9]; 31 ppm): 70%; SETFA postemergence injury score 0-100 ([10]; 31 ppm): 85%; SORBI postemergence injury score 0-100 ([11]; 31 ppm): 90%; AVEFA postemergence injury score 0-100 ([12]; 31 ppm): 80%
COc1cc(OC)n2nc(NS(=O)(=O)c3sc(Cl)cc3OC)nc2n1 [Compound 4] | 0 | 80 | 50 | 100 | 70 | 40 | 95 | 0 | 90 | 90 | 80 | 60 | STEME postemergence injury score 0-100 ([1]; 15.6 ppm): 60%; XANST postemergence injury score 0-100 ([2]; 15.6 ppm): 60%; CHEAL postemergence injury score 0-100 ([3]; 15.6 ppm): 90%; IPOHE postemergence injury score 0-100 ([4]; 15.6 ppm): 60%; AMARE postemergence injury score 0-100 ([5]; 15.6 ppm): 100%; ABUTH postemergence injury score 0-100 ([6]; 15.6 ppm): 70%; VIOTR postemergence injury score 0-100 ([7]; 15.6 ppm): 60%; POLCO postemergence injury score 0-100 ([8]; 15.6 ppm): 90%; ALOMY postemergence injury score 0-100 ([9]; 15.6 ppm): 70%; SETFA postemergence injury score 0-100 ([10]; 15.6 ppm): 85%; SORBI postemergence injury score 0-100 ([11]; 15.6 ppm): 70%; AVEFA postemergence injury score 0-100 ([12]; 15.6 ppm): 60%
